In US6787557B2 (priority 2000, dated 2004):
Several values for one entry are separate records, joined by “and”; a condition that tells them apart may be missing. Equal entries are not always repeated. Where two headings read alike, the source gives them in different places.

Tests used:
rice blast fungi [1] = type: in vivo, Pyricularia oryzae
rice blast fungi [2] = type: in vivo, Pyricularia oryzae; remark: listed apart in the source

Compound | Protective value (rice blast fungi [1]; 3 ppm) | Protective value (rice blast fungi [1]; 10 ppm) | Protective value (rice blast fungi [2]; 30 ppm) | Protective value (rice blast fungi [2]; 100 ppm) | Protective value (rice blast fungi [2]; 37.5 ppm) | Protective value (rice blast fungi [2]; 75 ppm) | Protective value (rice blast fungi [1]; in vivo) | Protective value (rice blast fungi [2]; in vivo)
2,3-dimethyl-6-t-butyl-8-fluoro-4-methoxyacetylquinoline [Compound 10] | 99 | 100 | 90 | 100 |  |  |  | 
2,3-dimethyl-6-t-butyl-8-fluoro-4-butyrylquinoline [Compound 4] |  |  |  |  | 66 | 94 |  | 
2,3-dimethyl-6-t-butyl-8-fluoro-4-n-butoxycarbonyl-quinoline [Compound 9] |  |  |  |  |  |  | 99 and 90 | 98 and 87
2,3-dimethyl-6-t-butyl-8-fluoro-4-valerylquinoline [Compound 5] | 84 | 99 |  |  | 82 | 95 |  | 
2,3-dimethyl-6-t-butyl-8-fluoro-4-acetoxyacetylquinoline [Compound 11] | 94 | 100 | 88 | 99 |  |  |  | 
Cc1nc2c(F)cc(C(C)(C)C)cc2c(O)c1C [Compound 1, 2,3-dimethyl-6-t-butyl-8-fluoro-4-hydroxyquinoline] | 93 | 100 |  |  |  |  |  | 
2,3-dimethyl-6-t-butyl-8-fluoro-4-n-propoxycarbonyl-quinoline [Compound 8] |  |  |  |  |  |  | 100 and 92 | 98 and 84
